Source: US11767310B2, “Nicotinamide RIPK1 inhibitors” (AbbVie Inc., priority 2021, dated 2023)
Like-named read-outs stand apart in the source and are kept apart here.

Columns and labels:
Test in all cases: Kinase binding screen
Conditions in all cases: read-out: Percent Control at 100 nM Compound Concentration
FLT1 = FLT1 (Homo sapiens (Human), UniProt P17948)
TSSK1B = TSSK1B (Homo sapiens (Human), UniProt Q9BXA7)
CSNK1G1 = CSNK1G1 (Homo sapiens (Human), UniProt Q9HCP0)
HPK1 = HPK1 (Homo sapiens (Human), UniProt Q92918)
GSK3A = GSK3A (Homo sapiens (Human), UniProt P49840)
[1] = molecular target: JAK1(JH2domain-pseudokinase) (Homo sapiens (Human), UniProt P23458)
TNNI3K = TNNI3K (Homo sapiens (Human), UniProt Q59H18)
MAP4K5 = MAP4K5 (Homo sapiens (Human), UniProt Q9Y4K4)
MEK2 = MEK2 (Homo sapiens (Human), UniProt P36507)
MST4 = MST4 (Homo sapiens (Human), UniProt Q9P289)
MEK6 = MEK6 (Homo sapiens (Human), UniProt P52564)
FER = FER (Homo sapiens (Human), UniProt P16591)
PKMYT1 = PKMYT1 (Homo sapiens (Human), UniProt Q99640)
MINK = MINK (Homo sapiens (Human), UniProt Q8N4C8)
PRKD3 = PRKD3 (Homo sapiens (Human), UniProt O94806)
PIK3CA(M10431) = PIK3CA(M10431) (Homo sapiens (Human), UniProt P42336, M1043I)
PRKCD = PRKCD (Homo sapiens (Human), UniProt Q05655)
BRAF = BRAF (Homo sapiens (Human), UniProt P15056)
VEGFR2 = VEGFR2 (Homo sapiens (Human), UniProt P35968)
PIK3CA(I800L) = PIK3CA(I800L) (Homo sapiens (Human), UniProt P42336, I800L)
MARK3 = MARK3 (Homo sapiens (Human), UniProt P27448)
PCTK1 = PCTK1 (Homo sapiens (Human), UniProt Q00536)
CAMK2B = CAMK2B (Homo sapiens (Human), UniProt Q13554)
BRSK2 = BRSK2 (Homo sapiens (Human), UniProt Q8IWQ3)
[2] = molecular target: RSK3(Kin.Dom.1-N-terminal) (Homo sapiens (Human), UniProt Q15349)
PIK3CA(E542K) = PIK3CA(E542K) (Homo sapiens (Human), UniProt P42336, E542K)
ACVR2B = ACVR2B (Homo sapiens (Human), UniProt Q13705)
MAP4K3 = MAP4K3 (Homo sapiens (Human), UniProt Q8IVH8)
Sequence of MAP4K3 (Q8IVH8 whole entry): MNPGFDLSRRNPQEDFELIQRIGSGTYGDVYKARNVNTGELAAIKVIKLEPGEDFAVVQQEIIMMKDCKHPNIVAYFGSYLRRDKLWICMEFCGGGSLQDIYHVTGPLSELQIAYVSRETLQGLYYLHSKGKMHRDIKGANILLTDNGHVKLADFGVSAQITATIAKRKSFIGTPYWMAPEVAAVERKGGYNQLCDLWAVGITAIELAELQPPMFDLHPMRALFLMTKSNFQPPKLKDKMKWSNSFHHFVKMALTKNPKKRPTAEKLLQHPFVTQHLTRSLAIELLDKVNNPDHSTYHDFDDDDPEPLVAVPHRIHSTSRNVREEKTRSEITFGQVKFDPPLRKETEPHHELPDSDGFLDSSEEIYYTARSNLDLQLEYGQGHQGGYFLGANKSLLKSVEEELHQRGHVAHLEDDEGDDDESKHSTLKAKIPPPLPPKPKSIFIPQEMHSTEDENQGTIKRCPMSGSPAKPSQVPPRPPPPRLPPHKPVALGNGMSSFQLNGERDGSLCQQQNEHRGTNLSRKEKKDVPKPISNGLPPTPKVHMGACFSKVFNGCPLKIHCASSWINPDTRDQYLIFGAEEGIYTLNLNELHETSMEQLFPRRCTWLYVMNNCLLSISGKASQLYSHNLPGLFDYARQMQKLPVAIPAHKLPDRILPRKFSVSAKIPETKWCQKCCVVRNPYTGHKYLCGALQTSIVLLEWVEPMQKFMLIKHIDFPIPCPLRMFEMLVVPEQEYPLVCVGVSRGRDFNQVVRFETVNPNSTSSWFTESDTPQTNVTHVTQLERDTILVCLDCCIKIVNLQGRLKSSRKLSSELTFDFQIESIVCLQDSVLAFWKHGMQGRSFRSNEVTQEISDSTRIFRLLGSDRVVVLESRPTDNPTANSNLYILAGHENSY

Sequence of JAK1(JH2domain-pseudokinase) (P23458 583-855): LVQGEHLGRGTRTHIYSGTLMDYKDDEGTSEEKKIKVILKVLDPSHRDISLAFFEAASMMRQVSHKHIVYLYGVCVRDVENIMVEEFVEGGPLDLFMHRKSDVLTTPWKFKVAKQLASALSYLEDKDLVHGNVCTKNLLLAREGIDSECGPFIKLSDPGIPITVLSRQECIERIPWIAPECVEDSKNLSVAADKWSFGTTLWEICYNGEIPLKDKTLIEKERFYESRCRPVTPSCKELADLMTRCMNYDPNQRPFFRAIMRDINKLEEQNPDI
Sequence of PIK3CA(M10431) (P42336 whole entry M1043I): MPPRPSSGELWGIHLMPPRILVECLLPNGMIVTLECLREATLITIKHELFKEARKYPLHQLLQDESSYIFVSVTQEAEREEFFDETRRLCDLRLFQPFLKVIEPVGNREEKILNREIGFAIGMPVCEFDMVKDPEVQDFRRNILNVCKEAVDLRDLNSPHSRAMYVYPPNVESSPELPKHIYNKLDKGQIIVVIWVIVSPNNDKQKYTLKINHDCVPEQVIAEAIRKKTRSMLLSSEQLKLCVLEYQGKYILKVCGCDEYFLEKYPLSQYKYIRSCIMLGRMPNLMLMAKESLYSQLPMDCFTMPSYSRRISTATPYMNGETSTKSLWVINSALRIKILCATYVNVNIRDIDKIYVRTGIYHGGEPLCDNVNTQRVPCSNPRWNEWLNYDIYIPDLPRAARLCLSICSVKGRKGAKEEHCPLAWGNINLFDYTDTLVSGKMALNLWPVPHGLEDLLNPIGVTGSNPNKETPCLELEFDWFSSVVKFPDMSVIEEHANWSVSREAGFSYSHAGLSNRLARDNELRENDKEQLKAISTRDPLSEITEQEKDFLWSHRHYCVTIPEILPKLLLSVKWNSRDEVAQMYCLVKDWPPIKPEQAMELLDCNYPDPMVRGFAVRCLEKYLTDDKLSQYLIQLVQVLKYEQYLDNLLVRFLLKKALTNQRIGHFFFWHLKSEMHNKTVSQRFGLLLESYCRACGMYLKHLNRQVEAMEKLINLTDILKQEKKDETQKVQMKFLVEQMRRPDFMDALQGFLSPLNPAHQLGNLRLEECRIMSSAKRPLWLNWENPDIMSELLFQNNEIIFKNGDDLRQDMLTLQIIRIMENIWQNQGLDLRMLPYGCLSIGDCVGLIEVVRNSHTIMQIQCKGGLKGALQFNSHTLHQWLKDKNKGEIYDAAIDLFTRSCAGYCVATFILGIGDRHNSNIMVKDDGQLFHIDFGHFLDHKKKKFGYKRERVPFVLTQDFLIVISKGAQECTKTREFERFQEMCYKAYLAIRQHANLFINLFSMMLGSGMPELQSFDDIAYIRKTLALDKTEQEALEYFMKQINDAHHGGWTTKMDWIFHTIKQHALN
Sequence of MEK2 (P36507 whole entry): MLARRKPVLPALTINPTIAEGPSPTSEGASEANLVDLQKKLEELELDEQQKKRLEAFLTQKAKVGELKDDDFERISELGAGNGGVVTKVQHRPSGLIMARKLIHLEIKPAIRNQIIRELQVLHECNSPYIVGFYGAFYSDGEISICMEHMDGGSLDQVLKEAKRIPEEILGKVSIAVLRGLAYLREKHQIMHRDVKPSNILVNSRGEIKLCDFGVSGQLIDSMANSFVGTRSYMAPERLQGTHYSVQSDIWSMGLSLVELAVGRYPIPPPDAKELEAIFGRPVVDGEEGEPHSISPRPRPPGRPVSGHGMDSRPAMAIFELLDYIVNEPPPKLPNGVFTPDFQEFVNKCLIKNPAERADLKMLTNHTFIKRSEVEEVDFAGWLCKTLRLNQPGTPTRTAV
Sequence of MEK6 (P52564 whole entry): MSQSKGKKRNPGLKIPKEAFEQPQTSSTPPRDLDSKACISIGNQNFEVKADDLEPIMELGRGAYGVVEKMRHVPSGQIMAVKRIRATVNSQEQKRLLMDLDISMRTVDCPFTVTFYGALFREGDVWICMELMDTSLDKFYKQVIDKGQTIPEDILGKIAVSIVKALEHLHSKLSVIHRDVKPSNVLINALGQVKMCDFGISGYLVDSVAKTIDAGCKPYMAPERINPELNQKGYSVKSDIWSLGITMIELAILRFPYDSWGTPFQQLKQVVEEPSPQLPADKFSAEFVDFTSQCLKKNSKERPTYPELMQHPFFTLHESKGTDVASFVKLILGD
Sequence of MARK3 (P27448 whole entry): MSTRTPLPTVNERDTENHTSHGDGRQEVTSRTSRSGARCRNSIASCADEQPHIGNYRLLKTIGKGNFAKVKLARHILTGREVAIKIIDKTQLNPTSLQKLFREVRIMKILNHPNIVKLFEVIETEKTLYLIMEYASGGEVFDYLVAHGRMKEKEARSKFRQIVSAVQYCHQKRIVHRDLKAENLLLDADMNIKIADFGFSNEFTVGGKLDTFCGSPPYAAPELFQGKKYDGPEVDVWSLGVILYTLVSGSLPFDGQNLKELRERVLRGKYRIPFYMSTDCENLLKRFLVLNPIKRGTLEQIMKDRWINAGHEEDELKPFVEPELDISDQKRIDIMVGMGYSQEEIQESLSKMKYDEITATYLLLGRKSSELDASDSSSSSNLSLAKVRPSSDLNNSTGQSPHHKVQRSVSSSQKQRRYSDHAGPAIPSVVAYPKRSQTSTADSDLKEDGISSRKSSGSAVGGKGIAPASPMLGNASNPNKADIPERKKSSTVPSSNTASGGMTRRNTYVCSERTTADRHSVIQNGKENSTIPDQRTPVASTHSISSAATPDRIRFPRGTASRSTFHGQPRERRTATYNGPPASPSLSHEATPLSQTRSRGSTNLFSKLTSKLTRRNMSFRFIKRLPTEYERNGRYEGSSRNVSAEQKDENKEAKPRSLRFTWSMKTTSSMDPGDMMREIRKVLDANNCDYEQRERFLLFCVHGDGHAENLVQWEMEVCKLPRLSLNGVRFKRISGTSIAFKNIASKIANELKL
Sequence of TNNI3K (Q59H18 whole entry): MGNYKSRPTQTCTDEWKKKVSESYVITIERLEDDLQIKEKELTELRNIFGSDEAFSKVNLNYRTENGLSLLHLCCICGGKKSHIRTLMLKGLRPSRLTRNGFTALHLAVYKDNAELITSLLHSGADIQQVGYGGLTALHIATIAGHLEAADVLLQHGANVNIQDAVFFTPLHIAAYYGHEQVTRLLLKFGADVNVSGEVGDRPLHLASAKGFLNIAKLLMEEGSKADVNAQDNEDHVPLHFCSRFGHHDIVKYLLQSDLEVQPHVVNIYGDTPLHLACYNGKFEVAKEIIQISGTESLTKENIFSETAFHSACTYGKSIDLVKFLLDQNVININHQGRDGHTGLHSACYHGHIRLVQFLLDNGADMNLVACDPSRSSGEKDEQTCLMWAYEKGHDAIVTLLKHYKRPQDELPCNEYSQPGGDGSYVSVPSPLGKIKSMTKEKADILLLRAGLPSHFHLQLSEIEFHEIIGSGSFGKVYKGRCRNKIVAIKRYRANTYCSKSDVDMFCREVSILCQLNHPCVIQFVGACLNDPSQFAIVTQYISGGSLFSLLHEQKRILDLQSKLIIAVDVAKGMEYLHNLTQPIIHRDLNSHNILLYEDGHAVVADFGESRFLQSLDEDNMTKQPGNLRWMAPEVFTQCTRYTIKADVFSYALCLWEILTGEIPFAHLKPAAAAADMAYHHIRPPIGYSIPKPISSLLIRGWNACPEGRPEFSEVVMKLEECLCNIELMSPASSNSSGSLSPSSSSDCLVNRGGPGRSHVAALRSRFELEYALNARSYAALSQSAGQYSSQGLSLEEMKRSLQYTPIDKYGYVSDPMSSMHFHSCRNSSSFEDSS
Sequence of TSSK1B (Q9BXA7 whole entry): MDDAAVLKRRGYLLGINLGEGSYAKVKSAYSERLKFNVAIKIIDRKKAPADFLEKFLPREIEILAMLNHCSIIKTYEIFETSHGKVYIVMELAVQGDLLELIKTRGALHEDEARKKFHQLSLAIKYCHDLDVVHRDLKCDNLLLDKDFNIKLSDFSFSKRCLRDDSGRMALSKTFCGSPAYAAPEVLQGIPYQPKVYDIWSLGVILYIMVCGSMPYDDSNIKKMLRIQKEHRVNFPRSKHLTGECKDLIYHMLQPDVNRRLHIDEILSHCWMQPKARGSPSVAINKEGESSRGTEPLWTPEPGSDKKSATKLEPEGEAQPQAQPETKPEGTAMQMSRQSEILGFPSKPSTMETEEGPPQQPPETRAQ
Sequence of PIK3CA(I800L) (P42336 whole entry I800L): as the sequence (P42336 whole entry M1043I) above, with I800L, I1043M counted along it
Sequence of PIK3CA(E542K) (P42336 whole entry E542K): as the sequence (P42336 whole entry M1043I) above, with E542K, I1043M counted along it

**Q.** Which remaining activity at 0.1 µM (FLT1; FLT1) does the source give for CN(C[C@@H](O)Cc1ccccc1)C(=O)c1cncc(C#Cc2cnn(C(F)F)c2)c1 [Example 2, (S)-5-((1-(difluoromethyl)-1H-pyrazol-4-yl)ethynyl)-N-(2-hydroxy-3-phenylpropyl)-N-methylnicotinamide] here?
**A.** The remaining activity at 0.1 µM was 100%.

**Q.** And the remaining activity at 0.1 µM (TSSK1B; TSSK1B)?
**A.** Its remaining activity at 0.1 µM is 88%.

**Q.** And the remaining activity at 0.1 µM (CSNK1G1; CSNK1G1)?
**A.** The remaining activity at 0.1 µM was 100%.

**Q.** What about the remaining activity at 0.1 µM (HPK1; HPK1) of the same molecule?
**A.** The remaining activity at 0.1 µM was 78%.

**Q.** And the remaining activity at 0.1 µM (GSK3A; GSK3A)?
**A.** The remaining activity at 0.1 µM was 100%.

**Q.** And the remaining activity at 0.1 µM ([1]; JAK1(JH2domain-pseudokinase))?
**A.** The remaining activity at 0.1 µM was 93%.

**Q.** What about the remaining activity at 0.1 µM (TNNI3K; TNNI3K) of the same molecule?
**A.** Its remaining activity at 0.1 µM is 100%.

**Q.** What about the remaining activity at 0.1 µM (MAP4K5; MAP4K5) of the same molecule?
**A.** The remaining activity at 0.1 µM was 87%.

**Q.** What about the remaining activity at 0.1 µM (MEK2; MEK2) of the same molecule?
**A.** Its remaining activity at 0.1 µM is 99%.

**Q.** What about the remaining activity at 0.1 µM (MST4; MST4) of the same molecule?
**A.** Its remaining activity at 0.1 µM is 97%.

**Q.** What about the remaining activity at 0.1 µM (MEK6; MEK6) of the same molecule?
**A.** The remaining activity at 0.1 µM was 100%.

**Q.** What about the remaining activity at 0.1 µM (FER; FER) of the same molecule?
**A.** Its remaining activity at 0.1 µM is 100%.

**Q.** And the remaining activity at 0.1 µM (PKMYT1; PKMYT1)?
**A.** The remaining activity at 0.1 µM was 99%.

**Q.** What about the remaining activity at 0.1 µM (MINK; MINK) of the same molecule?
**A.** The remaining activity at 0.1 µM was 100%.

**Q.** What about the remaining activity at 0.1 µM (PRKD3; PRKD3) of the same molecule?
**A.** Its remaining activity at 0.1 µM is 100%.

**Q.** And the remaining activity at 0.1 µM (PIK3CA(M10431); PIK3CA(M10431))?
**A.** The remaining activity at 0.1 µM was 92%.

**Q.** What about the remaining activity at 0.1 µM (PRKCD; PRKCD) of the same molecule?
**A.** Its remaining activity at 0.1 µM is 98%.

**Q.** What about the remaining activity at 0.1 µM (BRAF; BRAF) of the same molecule?
**A.** The remaining activity at 0.1 µM was 100%.

**Q.** And the remaining activity at 0.1 µM (VEGFR2; VEGFR2)?
**A.** The remaining activity at 0.1 µM was 96%.

**Q.** What about the remaining activity at 0.1 µM (PIK3CA(I800L); PIK3CA(I800L)) of the same molecule?
**A.** Its remaining activity at 0.1 µM is 96%.

**Q.** And the remaining activity at 0.1 µM (MARK3; MARK3)?
**A.** The remaining activity at 0.1 µM was 98%.

**Q.** What about the remaining activity at 0.1 µM (PCTK1; PCTK1) of the same molecule?
**A.** Its remaining activity at 0.1 µM is 91%.

**Q.** What about the remaining activity at 0.1 µM (CAMK2B; CAMK2B) of the same molecule?
**A.** The remaining activity at 0.1 µM was 100%.

**Q.** And the remaining activity at 0.1 µM (BRSK2; BRSK2)?
**A.** The remaining activity at 0.1 µM was 96%.

**Q.** What about the remaining activity at 0.1 µM ([2]; RSK3(Kin.Dom.1-N-terminal)) of the same molecule?
**A.** Its remaining activity at 0.1 µM is 97%.

**Q.** What about the remaining activity at 0.1 µM (PIK3CA(E542K); PIK3CA(E542K)) of the same molecule?
**A.** Its remaining activity at 0.1 µM is 89%.

**Q.** And the remaining activity at 0.1 µM (ACVR2B; ACVR2B)?
**A.** Its remaining activity at 0.1 µM is 91%.

**Q.** And the remaining activity at 0.1 µM (MAP4K3; MAP4K3)?
**A.** The remaining activity at 0.1 µM was 100%.

**Q.** How did the remaining activity at 0.1 µM (FLT1) turn out when CN(C[C@H](Cc1ccccc1)OP(=O)(O)O)C(=O)c1cncc(C#Cc2cnn(C(F)F)c2)c1 [Example 19, (S)-1-(5-((1-(difluoromethyl)-1H-pyrazol-4-yl)ethynyl)-N-methylnicotinamido)-3-phenylpropan-2-yl dihydrogen phosphate] was run?
**A.** Its remaining activity at 0.1 µM is 100%.

**Q.** And the remaining activity at 0.1 µM (TSSK1B)?
**A.** Its remaining activity at 0.1 µM is 76%.

**Q.** What about the remaining activity at 0.1 µM (CSNK1G1) of the same molecule?
**A.** Its remaining activity at 0.1 µM is 100%.

**Q.** What about the remaining activity at 0.1 µM (HPK1) of the same molecule?
**A.** Its remaining activity at 0.1 µM is 92%.

**Q.** And the remaining activity at 0.1 µM (GSK3A)?
**A.** The remaining activity at 0.1 µM was 100%.

**Q.** And the remaining activity at 0.1 µM [1]?
**A.** Its remaining activity at 0.1 µM is 86%.

**Q.** And the remaining activity at 0.1 µM (TNNI3K)?
**A.** The remaining activity at 0.1 µM was 100%.

**Q.** And the remaining activity at 0.1 µM (MAP4K5)?
**A.** The remaining activity at 0.1 µM was 95%.

**Q.** What about the remaining activity at 0.1 µM (MEK2) of the same molecule?
**A.** Its remaining activity at 0.1 µM is 98%.

**Q.** And the remaining activity at 0.1 µM (MST4)?
**A.** Its remaining activity at 0.1 µM is 84%.

**Q.** And the remaining activity at 0.1 µM (MEK6)?
**A.** The remaining activity at 0.1 µM was 96%.

**Q.** And the remaining activity at 0.1 µM (FER)?
**A.** The remaining activity at 0.1 µM was 96%.

**Q.** What about the remaining activity at 0.1 µM (PKMYT1) of the same molecule?
**A.** Its remaining activity at 0.1 µM is 100%.

**Q.** What about the remaining activity at 0.1 µM (MINK) of the same molecule?
**A.** The remaining activity at 0.1 µM was 100%.

**Q.** And the remaining activity at 0.1 µM (PRKD3)?
**A.** The remaining activity at 0.1 µM was 100%.

**Q.** And the remaining activity at 0.1 µM (PIK3CA(M10431))?
**A.** Its remaining activity at 0.1 µM is 85%.

**Q.** And the remaining activity at 0.1 µM (PRKCD)?
**A.** The remaining activity at 0.1 µM was 94%.

**Q.** And the remaining activity at 0.1 µM (BRAF)?
**A.** Its remaining activity at 0.1 µM is 100%.

**Q.** And the remaining activity at 0.1 µM (VEGFR2)?
**A.** Its remaining activity at 0.1 µM is 97%.

**Q.** What about the remaining activity at 0.1 µM (PIK3CA(I800L)) of the same molecule?
**A.** The remaining activity at 0.1 µM was 87%.

**Q.** And the remaining activity at 0.1 µM (MARK3)?
**A.** Its remaining activity at 0.1 µM is 97%.

**Q.** What about the remaining activity at 0.1 µM (PCTK1) of the same molecule?
**A.** The remaining activity at 0.1 µM was 84%.

**Q.** And the remaining activity at 0.1 µM (CAMK2B)?
**A.** The remaining activity at 0.1 µM was 92%.

**Q.** What about the remaining activity at 0.1 µM (BRSK2) of the same molecule?
**A.** Its remaining activity at 0.1 µM is 95%.

**Q.** And the remaining activity at 0.1 µM [2]?
**A.** The remaining activity at 0.1 µM was 100%.

**Q.** And the remaining activity at 0.1 µM (PIK3CA(E542K))?
**A.** The remaining activity at 0.1 µM was 81%.

**Q.** And the remaining activity at 0.1 µM (ACVR2B)?
**A.** The remaining activity at 0.1 µM was 99%.

**Q.** What about the remaining activity at 0.1 µM (MAP4K3) of the same molecule?
**A.** The remaining activity at 0.1 µM was 100%.
